Consider 2 molecules from patent publication US20240342216A1, “METHODS OF TREATING CANCER” (Therapeutics By Design, LLC, priority 2021, published 2024).

The test system of test [1] is human breast cancer stem cells. The experiment in a line: mammosphere (tumorsphere) formation assay, self-renewal in vitro. In kind it is cell-based. To be noted: for inhibition of mammosphere / tumorsphere formation: non-adherent culture, serum-free stem cell medium, 5 to 7 days. As for the experimental part:
Isolated human breast cancer stem cells treated with BMP-7 (500 ng/ml) for 7 days in non-adherent culture.
To investigate Peptide 123 (SEQ ID NO: 1) and BMP-7 effects on cancer stem cell function, their ability to influence self-renewal in vitro by using the mammosphere assay was examined. The mammosphere assay was developed as a method to propagate mammary epithelial stem cells (MaSC) in vitro by Dontu et al. (Genes Dev 17: 1253-1270 (2003)).
A procedure as described in manufacturer's manual (ProMab, California) was followed to grow cancer stem cells into mammospheres. For mammosphere culture, isolated human breast cancer stem cells were seeded in six well ultralow adherence plates (Corning Inc., Corning, NY, USA) and grown as non-adherent cell suspensions in serum-free stem cell culture medium (ProMab, California). Primary and secondary mammosphere formation was achieved by using weekly trypsinization and dissociation, followed by reseeding in ultralow adherence six well plates.

The test system of test [2] is human breast cancer stem cells. The experiment in a line: FACS quantification of CD44+ and E-cadherin+ cells. To be noted: for percent loss of CD44+ cells / percent gain in E-cadherin+ cells: non-adherent culture 8 days, vs untreated; for change in CD44+ cells (stem cell phenotype), in words / change in E-Cadherin+ cells (epithelial phenotype), in words: vs untreated control. In kind it is cell-based. As for the experimental part:
Untreated cells were incubated with APC labeled mouse anti-human antibody to CD44 antibody and FITC labeled rat anti-human E-Cadherin antibody. Cells were gated to exclude events in water and events due to cell death and debris. Cells were then gated to identify CD44+ and E-Cadherin+ populations based on corresponding fluorescence activity and labeled R7 and R11 respectively. […] Untreated cells were incubated with corresponding isotype antibodies, APC labeled mouse IgG1 and FITC labeled mouse IgG1. Cells were gated to exclude events in water and events due to cell death and debris.
(§1) Cells were plated and incubated for 24 hours to form tumorspheres. On day 2, cells were treated with 300 μM P123, followed by subsequent treatments on days 3, 5, and 8. Cells were then incubated with APC labeled mouse anti-human CD44 antibody and FITC labeled rat anti-human E-Cadherin antibody. Cells were gated to exclude events in water and events due to cell death and debris. Cells were then gated to identify CD44+ and E-Cadherin+ populations based on corresponding fluorescence activity and labeled R7 and R11 respectively. […] Cells were treated with P123 as described in (A). Cells were then incubated with corresponding isotype antibodies, APC labeled mouse IgG1 and FITC labeled mouse IgG1. Cells were gated to exclude events in water and events due to cell death and debris.
as §1, with “BMP-7 at 430 ng/ml with” for “300 μM P123, followed by”, “treatments at 362 ng/ml” for “treatments”, “day” for “days”, “3, 314 ng/ml on day” for “3,”, “277 ng/ml on day 8 (media was added at 10% volume resulting in decreased concentrations).” for “8.”, “BMP-7” for “P123”
Differentiation of chemo-resistant cancer stem cells, specifically a loss of its stem cell phenotype and self-renewal ability, could be a viable approach to the treatment of tumor recurrence and metastasis (Chirasani S R, Sternjak A, Wend P, et al. Bone morphogenetic protein-7 release from endogenous neural precursor cells suppresses the tumourigenicity of stem-like glioblastoma cells. Brain 2010, 133:1961-1972). Although this approach may or may not directly kill the cancer cells, it could make CSCs more responsive to conventional chemotherapies. Therefore, Peptide 123 and BMP-7 were examined to determine if they affected differentiation of human breast cancer stem cells. Sensitive flow cytometry method (Gupta V et al., Methods Mol Biol. 2011, 716: 179-191) to quantify CD44+, indicating stem cell phenotype, and E-cadherin+, indicating epithelial phenotype cells, after treatment with or without P123 (SEQ ID NO: 1) and BMP-7. Human breast cancer stem cells were grown in non-adherent cell suspension in serum-free medium for 8 Days. […] Importantly, the percent loss of CD44+ cells after treatment with the P123, 50%, was greater than that after treatment with BMP-7, 19% (FIGS. 4 and 5). Furthermore, a gain in E-cadherin+ cells was observed, which was proportional to the loss of CD44+ cells (FIGS. 4-6). Similarly, the percent gain in E-cadherin+ cells after treatment with P123, 50%, was greater than that after treatment with BMP-7, 19%, (FIG. 7).

The test system of test [3] is bulk tumor cell growth from prostate cancer. To be noted: by activating SMAD 1/5/8 signaling; Bosukonda et al. 2009; cited from earlier work.

Entries after “also recorded” stand apart in the source; their conditions may differ.

In the case of “CYFDDSSNVLCKKYRS [Peptide 123, TDFRP, a peptide agonist of BMP signaling]”, the “inhibition of mammosphere / tumorsphere formation” value in test [1] (300 μM) is “profound inhibition of tumorsphere formation”; in test [1] (300 μM, listed as P123), “profound inhibition of mammosphere formation”. For the same molecule, in test [2] (300 uM, treated days 2, 3, 5, 8), the “percent loss of CD44+ cells” value was found to be 50%. In addition, the “percent gain in E-cadherin+ cells” value in test [2] (300 uM) is 50%. In test [2] (300 uM, listed as P123), the “change in CD44+ cells (stem cell phenotype), in words” value is given as “marked decline in CD44+ cells; also recorded: marked decrease in CD44+ cells”. In addition, the “change in E-Cadherin+ cells (epithelial phenotype), in words” value in test [2] (300 uM, listed as P123) was “marked increase in E-Cadherin+ cells; also recorded: majority of P123 treated cells were E-Cadherin+”. In addition, the “inhibition of bulk tumor cell growth from prostate cancer” value in test [3] is “capable of inhibiting bulk tumor cell growth from prostate cancer”.

B1: BMP-7: bone morphogenetic protein-7, member of the transforming growth factor-beta superfamily (protein, UniProt P18075 293-431, looked up)
Bone morphogenetic protein 7: STGSKQRSQNRSKTPKNQEALRMANVAENSSSDQRQACKKHELYVSFRDLGWQDWIIAPEGYAAYYCEGECAFPLNSYMNATNHAIVQTLVHFINPETVPKPCCAPTQLNAISVLYFDDSSNVILKKYRNMVVRACGCH
On to B1, for which the “mammosphere formation after withdrawal of treatment” value in test [1] (500 ng/ml for 7 days, then 7 days with no treatment) was “regained the ability to form tumorspheres; also recorded: significant increase in Mammosphere formation”. Further, the “inhibition of mammosphere / tumorsphere formation” value in test [1] (500 ng/ml) is reported as “inhibited tumorsphere formation; also recorded: moderate inhibition of mammosphere formation”. Moreover, in test [2] (314-430 ng/ml), the “percent gain in E-cadherin+ cells” value was 19%; the “percent loss of CD44+ cells” value was 19%; the “change in CD44+ cells (stem cell phenotype), in words” value is given as “marked decline in CD44+ cells; also recorded: a decrease in CD44+ cells”; the “change in E-Cadherin+ cells (epithelial phenotype), in words” value is given as “an increase in E-Cadherin cells; also recorded: an increase E-Cadherin+ with a large portion of CD44+ remaining”.
